In US9315532B2, “Fatty acid carbohydrate hybrid molecules as therapeutic agents and methods thereof” (The Johns Hopkins University, priority 2005, dated 2016):
Entries after “also recorded” stand apart in the source; their conditions may differ.

Tests used:
Type in all cases: cell-based, human
Jurkat cells = experiment: Toxicity and growth inhibition assays (cell counts on days 3, 5 and 15)
Method: For cell culture studies, But4ManNAc (1) (50) was used as a mixture of anomers (α/β=10/90), But4GlcNAc (2) as pure α-anomer and But5Man (3) as pure β-anomer (It is noteworthy that the intracellular hydrolysis of butyrate esters makes the anomeric configuration less relevant in these studies and we found similar cellular effects between the α- and β-anomers in long term toxicity). Stock solutions of the sugar analogs were made in ethanol at concentrations of 10 mM and 50 mM. In the case of cells growing in suspension the solutions of 1-4 (or an ethanol control at an equivalent volume) were coated onto dishes and the ethanol was allowed to evaporate prior to plating. Unless otherwise noted, throughout this study Jurkat cells (Clone E-6, ATCC, Manassas, Va.) were cultured in RPMI 1640 medium supplemented with 300 mg/L glutamine, 5.0% fetal bovine serum (HyClone, Logan, Utah) and 1.0% of a 100× dilution of a pen/strep stock solution containing penicillin (100 units/mL) and streptomycin (100 μg/mL); HL-60 cells (ATCC, Manassas, Va.) were cultured in RPMI 1640 medium supplemented with 10% FBS and pen/strep; and AD293 (HEK) cells (Stratagene, La Jolla, Calif.) were grown in DMEM medium with 10% FBS and pen/strep. In all cases, cells were incubated in a standard 37° C. in a 5.0% CO2, water-saturated environment. Cell counting was performed with a Beckman-Coulter Z2 particle counter and hemacytometer.
Solutions of the analogs in EtOH (10 mM stock) were coated onto 24-well plates at a range of concentrations from 0-320 μM and ethanol was allowed to evaporate. Jurkat cells (1.0×10^5 cells) in 0.5 mL of medium were plated in each well (day 0). On days 3 and 5, fresh medium (1.0 mL) was added to each well. Cell cultures were mixed by gentle pipetting and 100 μL of cell suspension was taken from each well and counted. On days 7, 9, 11, 13 and 15, 1.0 mL of cell suspension was removed from each well after thorough mixing and fresh medium (1.0 mL) was added. Cells were counted on day 15 and the cell density was plotted as a percentage of control (as was done for cell counts from days 3 and 5).

AD293 (HEK) cells = experiment: Morphological changes / toxicity in AD293 (HEK) cells
Method: The studies on morphological changes induced by sodium butyrate (5) and But4ManNAc (1) were performed following a reported procedure (45). Briefly, HeLa cells (200,000 cells per well in a 6-well plate) were plated and allowed to form monolayers. After 24 h, the supernatant was aspirated, fresh medium (4.0 mL) was added and treated with either ethanol (20 μL (0.5%), control), 5 (5.0 mM), or 1 (250 μM). For the AD 293 (HEK) cells 2.0×10^6 cells in 10 mL of medium (100 mm tissue culture dishes) were plated and treated, immediately after plating, with either ethanol (50 μL, control), 5 (5.0 mM), or 1 (250 μM). Images were acquired at various time intervals under bright field using a Nikon Eclipse TE200 inverted microscope equipped with a DXM 1200 digital camera.

p21WAF1 = experiment: Endogenous p21WAF1 assay (anti-p21WAF1 antibody, flow cytometry) in Jurkat cells
Method: Endogenous expression of p21^WAF1 was detected following a reported procedure (58) with minor modifications. Jurkat cells (5.0×10^6 cells in 10 mL medium) were incubated with either ethanol or 1 (250 μM or 5 (2.5 mM). On a daily basis, aliquots of cells (˜1.0×10^6 per sample) were taken, washed with PBS (2×1.0 mL), fixed with Reagent A (Fix and Perm Kit, Caltag Laboratories, CA, Cat. No. GAS-003) for 10 min at room temperature, washed with washing buffer (PBS containing 5.0% FBS, 0.1% NaN3), re-suspended in 95% v/v methanol and kept on ice. After 30 min, cells were again washed with washing buffer and incubated with FITC-conjugated anti-p21^WAF1 antibody (Calbiochem, San Diego, Calif., Cat. No. OP64F) at 2.0 μg/mL in Reagent B (100 μL) (Fix and Perm Kit, Caltag Laboratories) for 1.0 h at room temperature in the dark. Finally, cells were re-suspended in washing buffer (500 μL) and analyzed by flow cytometry. Three replicate samples were taken for each condition and 10,000 events were counted for each sample.

CCCC(=O)OC[C@H]1OC(OC(=O)CCC)[C@@H](NC(C)=O)[C@@H](OC(=O)CCC)[C@@H]1OC(=O)CCC (stereo partly drawn) [compound 1, 2-Acetylamino-2-deoxy-1,3,4,6-tetra-O-butanoyl-α,β-D-mannopyranoside]
long term growth characteristics (day 15) (Jurkat cells; Jurkat cells, 0-320 μM, day 15): induces both growth arrest and cell death
concentration at which essentially all cells died by day 15 (Jurkat cells; Jurkat cells, day 15): ≥ 80 µM
range for bioactivity (Jurkat cells; ManNAc and butyrate combined in the same molecule): 50 to 100 µM
apoptosis / toxicity in AD293 cells (AD293 (HEK) cells; 2 days, 1 at 250 μM, 5 at 5.0 mM): considerable degree of apoptosis; also recorded: toxicity
fold lower concentration for cellular responses than sodium n-butyrate (AD293 (HEK) cells; AD293 cells): ~20 ×
fold lower concentration for endogenous p21WAF1/Cip1 gene activation than sodium n-butyrate (5) (p21WAF1): ~10 ×
endogenous p21WAF1 levels (p21WAF1; one week, 1 at 250 μM, 5 at 2.5 mM): increased p21^WAF1 levels
